What follows are compounds tested against PI3K-alpha (Homo sapiens (Human), UniProt P42336) (assay: HTRF PI3K biochemical assay, alpha isoform). Details: ratio PI3K-alpha IC50 value/PI3K-delta IC50 value.
Chain of PI3K-alpha (P42336 whole entry, looked up, canonical isoform): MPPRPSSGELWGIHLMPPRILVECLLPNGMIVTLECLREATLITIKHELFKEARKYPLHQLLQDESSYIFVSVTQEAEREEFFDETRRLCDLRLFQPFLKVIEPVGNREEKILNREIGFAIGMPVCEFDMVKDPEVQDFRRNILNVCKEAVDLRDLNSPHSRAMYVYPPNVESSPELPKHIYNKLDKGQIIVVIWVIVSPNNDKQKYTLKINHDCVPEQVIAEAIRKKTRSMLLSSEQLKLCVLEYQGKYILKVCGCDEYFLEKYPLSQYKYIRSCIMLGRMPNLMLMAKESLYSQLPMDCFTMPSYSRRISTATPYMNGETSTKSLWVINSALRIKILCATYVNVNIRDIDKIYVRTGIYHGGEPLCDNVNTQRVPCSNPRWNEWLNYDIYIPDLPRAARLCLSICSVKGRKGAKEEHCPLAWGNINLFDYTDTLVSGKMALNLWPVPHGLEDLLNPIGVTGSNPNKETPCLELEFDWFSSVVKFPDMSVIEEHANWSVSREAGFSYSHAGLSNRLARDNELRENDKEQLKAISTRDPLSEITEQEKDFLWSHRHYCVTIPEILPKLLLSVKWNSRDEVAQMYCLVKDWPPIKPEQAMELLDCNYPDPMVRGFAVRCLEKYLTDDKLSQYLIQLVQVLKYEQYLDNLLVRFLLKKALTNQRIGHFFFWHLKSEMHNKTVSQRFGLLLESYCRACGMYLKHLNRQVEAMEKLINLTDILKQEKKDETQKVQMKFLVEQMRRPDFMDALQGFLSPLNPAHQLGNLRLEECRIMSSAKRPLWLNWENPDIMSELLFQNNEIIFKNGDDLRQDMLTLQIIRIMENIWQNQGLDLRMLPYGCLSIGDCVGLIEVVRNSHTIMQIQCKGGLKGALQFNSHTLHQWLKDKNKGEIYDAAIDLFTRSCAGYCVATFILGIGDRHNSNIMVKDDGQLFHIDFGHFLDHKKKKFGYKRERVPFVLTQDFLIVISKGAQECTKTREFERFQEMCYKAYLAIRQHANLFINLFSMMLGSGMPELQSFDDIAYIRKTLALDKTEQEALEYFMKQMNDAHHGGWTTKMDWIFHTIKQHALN
Chain of PI3K-alpha (P27986 whole entry partner, looked up, canonical isoform): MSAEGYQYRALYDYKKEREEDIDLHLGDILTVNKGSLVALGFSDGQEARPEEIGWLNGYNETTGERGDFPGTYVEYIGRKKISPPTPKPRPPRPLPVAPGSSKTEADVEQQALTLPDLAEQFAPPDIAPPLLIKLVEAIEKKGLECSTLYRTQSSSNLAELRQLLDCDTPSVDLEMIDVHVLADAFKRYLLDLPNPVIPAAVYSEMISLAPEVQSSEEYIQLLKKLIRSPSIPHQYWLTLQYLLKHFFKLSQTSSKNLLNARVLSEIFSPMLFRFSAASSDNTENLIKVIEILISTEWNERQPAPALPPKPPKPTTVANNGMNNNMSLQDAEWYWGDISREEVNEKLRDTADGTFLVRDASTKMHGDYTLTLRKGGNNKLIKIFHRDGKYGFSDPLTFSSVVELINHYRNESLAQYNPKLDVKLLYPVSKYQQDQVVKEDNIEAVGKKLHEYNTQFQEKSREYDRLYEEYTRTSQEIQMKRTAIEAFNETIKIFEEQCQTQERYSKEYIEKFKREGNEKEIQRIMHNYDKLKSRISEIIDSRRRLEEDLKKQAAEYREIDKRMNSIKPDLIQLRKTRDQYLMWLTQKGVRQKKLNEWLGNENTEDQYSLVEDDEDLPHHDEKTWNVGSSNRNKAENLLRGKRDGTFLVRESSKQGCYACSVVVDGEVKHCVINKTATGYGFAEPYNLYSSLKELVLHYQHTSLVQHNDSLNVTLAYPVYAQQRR

SMILES	Relative Selectivity versus PI3Kalpha
CCn1c(-c2cnc(C)nc2)nc2c(O[C@H]3CCN(C(=O)OCCN(C)C)C3)ncnc21 [Compound 1-49, 2-(dimethylamino)ethyl (3S)-3-{[9-ethyl-8-(2-methylpyrimidin-5-yl)-9H-purin-6-yl]oxy}pyrrolidine-1-carboxylate]	>10
CCn1c(-c2ccc(OC(F)F)nc2)nc2c(O[C@H]3CCN(C(=O)OC(C)(C)C)C3)ncnc21 [Compound 1-51, tert-butyl (3S)-3-({8-[6-(difluoromethoxy)pyridin-3-yl]-9-ethyl-9H-purin-6-yl}oxy)pyrrolidine-1-carboxylate]	>10
CCn1ncc(-c2nc3c(OC4CCN(C(=O)c5ccccc5)C4)ncnc3n2C)c1C (stereo not shown) [Compound 2-1, 8-(1-ethyl-5-methyl-1H-pyrazol-4-yl)-9-methyl-6-{[1-(phenylcarbonyl)pyrrolidin-3-yl]oxy}-9H-purine]	>10
CCn1ncc(-c2nc3c(OC4CCN(C(=O)C5CCCC5)C4)ncnc3n2C)c1C (stereo not shown) [Compound 2-2, 6-{[1-(cyclopentylcarbonyl)pyrrolidin-3-yl]oxy}-8-(1-ethyl-5-methyl-1H-pyrazol-4-yl)-9-methyl-9H-purine]	>10
CCn1ncc(-c2nc3c(OC4CCN(C(=O)c5ccc6ccccc6c5)C4)ncnc3n2C)c1C (stereo not shown) [Compound 2-3, 8-(1-ethyl-5-methyl-1H-pyrazol-4-yl)-9-methyl-6-{[1-(naphthalen-2-ylcarbonyl)pyrrolidin-3-yl]oxy}-9H-purine]	>10
CCn1ncc(-c2nc3c(OC4CCN(C(=O)C5CCCCC5)C4)ncnc3n2C)c1C (stereo not shown) [Compound 2-4, 6-{[1-(cyclohexylcarbonyl)pyrrolidin-3-yl]oxy}-8-(1-ethyl-5-methyl-1H-pyrazol-4-yl)-9-methyl-9H-purine]	>10
CCn1ncc(-c2nc3c(OC4CCN(C(=O)COC)C4)ncnc3n2C)c1C (stereo not shown) [Compound 2-5, 8-(1-ethyl-5-methyl-1H-pyrazol-4-yl)-6-{[1-(methoxyacetyl)pyrrolidin-3-yl]oxy}-9-methyl-9H-purine]	>10
CCn1ncc(-c2nc3c(OC4CCN(C(=O)CC5CCOCC5)C4)ncnc3n2C)c1C (stereo not shown) [Compound 2-6, 8-(1-ethyl-5-methyl-1H-pyrazol-4-yl)-9-methyl-6-{[1-(tetrahydro-2H-pyran-4-ylacetyl)pyrrolidin-3-yl]oxy}-9H-purine]	>10
CCn1ncc(-c2nc3c(OC4CCN(C(=O)c5cnco5)C4)ncnc3n2C)c1C (stereo not shown) [Compound 2-7, 8-(1-ethyl-5-methyl-1H-pyrazol-4-yl)-9-methyl-6-{[1-(1,3-oxazol-5-ylcarbonyl)pyrrolidin-3-yl]oxy}-9H-purine]	>10
CCn1ncc(-c2nc3c(O[C@H]4CCN(C(=O)C5CCOCC5)C4)ncnc3n2C)c1C [Compound 2-8, (S)-(3-((8-(1-ethyl-5-methyl-1H-pyrazol-4-yl)-9-methyl-9H-purin-6-yl)oxy)pyrrolidin-1-yl)(tetrahydro-2H-pyran-4-yl)methanone]	>10
CCn1ncc(-c2nc3c(O[C@@H]4CCN(C(=O)C5CCOCC5)C4)ncnc3n2C)c1C [Compound 2-9, (R)-(3-((8-(1-ethyl-5-methyl-1H-pyrazol-4-yl)-9-methyl-9H-purin-6-yl)oxy)pyrrolidin-1-yl)(tetrahydro-2H-pyran-4-yl)methanone]	3
CCn1ncc(-c2nc3c(O[C@H]4CCN(C(=O)C5(C)CCOCC5)C4)ncnc3n2C)c1C [Compound 2-10, 8-(1-ethyl-5-methyl-1H-pyrazol-4-yl)-9-methyl-6-({(3S)-1-[(4-methyltetrahydro-2H-pyran-4-yl)carbonyl]pyrrolidin-3-yl}oxy)-9H-purine]	>10
CCn1ncc(-c2nc3c(OC4CCN(C(=O)C5CCOCC5)CC4)ncnc3n2C)c1C [Compound 2-11, (4-((8-(1-ethyl-5-methyl-1H-pyrazol-4-yl)-9-methyl-9H-purin-6-yl)oxy)piperidin-1-yl)(tetrahydro-2H-pyran-4-yl)methanone]	2
CCC(=O)N1CCC(Oc2ncnc3c2nc(-c2cnn(CC)c2C)n3C)CC1 [Compound 2-14, 1-(4-((8-(1-ethyl-5-methyl-1H-pyrazol-4-yl)-9-methyl-9H-purin-6-yl)oxy)piperidin-1-yl)propan-1-one]	1
CCn1ncc(-c2nc3c(O[C@H]4CCN(C(=O)CC#N)C4)ncnc3n2C)c1C [Compound 2-15, 3-[(3S)-3-{[8-(1-ethyl-5-methyl-1H-pyrazol-4-yl)-9-methyl-9H-purin-6-yl]oxy}pyrrolidin-1-yl]-3-oxopropanenitrile]	>10
CCn1ncc(-c2nc3c(O[C@H]4CCN(C(=O)C5CC5)C4)ncnc3n2C)c1C [Compound 2-16, 6-{[(3S)-1-(cyclopropylcarbonyl)pyrrolidin-3-yl]oxy}-8-(1-ethyl-5-methyl-1H-pyrazol-4-yl)-9-methyl-9H-purine]	>10

SMILES	Relative Selectivity versus PI3Kalpha
CCn1ncc(-c2nc3c(O[C@H]4CCN(C(=O)C5CCCO5)C4)ncnc3n2C)c1C (stereo partly drawn) [Compound 2-17, 8-(1-ethyl-5-methyl-1H-pyrazol-4-yl)-9-methyl-6-{[(3S)-1-(tetrahydrofuran-2-ylcarbonyl)pyrrolidin-3-yl]oxy}-9H-purine]	>10
CCn1ncc(-c2nc3c(O[C@H]4CCN(C(=O)c5ccc(N6CCN(C)CC6)cc5)C4)ncnc3n2C)c1C [Compound 2-21, 8-(1-ethyl-5-methyl-1H-pyrazol-4-yl)-9-methyl-6-{[(3S)-1-{[4-(4-methylpiperazin-1-yl)phenyl]carbonyl}pyrrolidin-3-yl]oxy}-9H-purine]	1
CCn1ncc(-c2nc3c(O[C@H]4CCN(C(=O)c5cccnc5)C4)ncnc3n2C)c1C [Compound 2-22, 8-(1-ethyl-5-methyl-1H-pyrazol-4-yl)-9-methyl-6-{[(3S)-1-(pyridin-3-ylcarbonyl)pyrrolidin-3-yl]oxy}-9H-purine]	>10
CCn1ncc(-c2nc3c(O[C@H]4CCN(C(=O)C5CCOC(C)(C)C5)C4)ncnc3n2C)c1C (stereo partly drawn) [Compound 2-24, 6-({(3S)-1-[(2,2-dimethyltetrahydro-2H-pyran-4-yl)carbonyl]pyrrolidin-3-yl}oxy)-8-(1-ethyl-5-methyl-1H-pyrazol-4-yl)-9-methyl-9H-purine]	>10
CCC(=O)N1CC[C@H](Oc2ncnc3c2nc(-c2cnc(C)nc2)n3CC)C1 [Compound 2-25, 9-ethyl-8-(2-methylpyrimidin-5-yl)-6-{[(3S)-1-propanoylpyrrolidin-3-yl]oxy}-9H-purine]	>10
CCn1c(-c2cnc(C)nc2)nc2c(O[C@H]3CCN(C(=O)C4CCOCC4)C3)ncnc21 [Compound 2-26, 9-ethyl-8-(2-methylpyrimidin-5-yl)-6-{[(3S)-1-(tetrahydro-2H-pyran-4-ylcarbonyl)pyrrolidin-3-yl]oxy}-9H-purine]	>10
CCn1ncc(-c2nc3c(O[C@H]4CCN(C(=O)c5coc(C)n5)C4)ncnc3n2C)c1C [Compound 2-27, 8-(1-ethyl-5-methyl-1H-pyrazol-4-yl)-9-methyl-6-({(3S)-1-[(2-methyl-1,3-oxazol-4-yl)carbonyl]pyrrolidin-3-yl}oxy)-9H-purine]	>10
CCn1ncc(-c2nc3c(O[C@H]4CCN(C(=O)c5nc(C)oc5C)C4)ncnc3n2C)c1C [Compound 2-28, 6-({(3S)-1-[(2,5-dimethyl-1,3-oxazol-4-yl)carbonyl]pyrrolidin-3-yl}oxy)-8-(1-ethyl-5-methyl-1H-pyrazol-4-yl)-9-methyl-9H-purine]	>10
CCn1ncc(-c2nc3c(O[C@H]4CCN(C(=O)c5cnon5)C4)ncnc3n2C)c1C [Compound 2-29, 8-(1-ethyl-5-methyl-1H-pyrazol-4-yl)-9-methyl-6-{[(3S)-1-(1,2,5-oxadiazol-3-ylcarbonyl)pyrrolidin-3-yl]oxy}-9H-purine]	1
CCn1ncc(-c2nc3c(O[C@H]4CCN(C(=O)c5cnn(C(C)C)c5)C4)ncnc3n2C)c1C [Compound 2-31, 8-(1-ethyl-5-methyl-1H-pyrazol-4-yl)-9-methyl-6-{[(3S)-1-{[1-(1-methylethyl)-1H-pyrazol-4-yl]carbonyl}pyrrolidin-3-yl]oxy}-9H-purine]	5
CCn1ncc(-c2nc3c(O[C@H]4CCN(C(=O)c5ccno5)C4)ncnc3n2C)c1C [Compound 2-32, 8-(1-ethyl-5-methyl-1H-pyrazol-4-yl)-6-{[(3S)-1-(isoxazol-5-ylcarbonyl)pyrrolidin-3-yl]oxy}-9-methyl-9H-purine]	>10
CCn1ncc(-c2nc3c(O[C@H]4CCN(C(=O)c5ccn[nH]5)C4)ncnc3n2C)c1C [Compound 2-33, 8-(1-ethyl-5-methyl-1H-pyrazol-4-yl)-9-methyl-6-{[(3S)-1-(1H-pyrazol-5-ylcarbonyl)pyrrolidin-3-yl]oxy}-9H-purine]	>10
CCn1ncc(-c2nc3c(O[C@H]4CCN(C(=O)c5nonc5C)C4)ncnc3n2C)c1C [Compound 2-35, 8-(1-ethyl-5-methyl-1H-pyrazol-4-yl)-9-methyl-6-({(3S)-1-[(4-methyl-1,2,5-oxadiazol-3-yl)carbonyl]pyrrolidin-3-yl}oxy)-9H-purine]	>10
CCn1ncc(-c2nc3c(O[C@H]4CCN(C(=O)c5ccnn5C)C4)ncnc3n2C)c1C [Compound 2-36, 8-(1-ethyl-5-methyl-1H-pyrazol-4-yl)-9-methyl-6-({(3S)-1-[(1-methyl-1H-pyrazol-5-yl)carbonyl]pyrrolidin-3-yl}oxy)-9H-purine]	>10
CCn1ncc(-c2nc3c(O[C@H]4CCN(C(=O)c5ccn(C)n5)C4)ncnc3n2C)c1C [Compound 2-37, 8-(1-ethyl-5-methyl-1H-pyrazol-4-yl)-9-methyl-6-({(3S)-1-[(1-methyl-1H-pyrazol-3-yl)carbonyl]pyrrolidin-3-yl}oxy)-9H-purine]	>10
